Converted amounts (≈) assume the structure as drawn. Read-outs that look alike come from different tables or passages of the source.
Columns and labels:
[1] = tested on: methicillin-resistant Staphylococcus aureus (MRSA); type: in vivo, Japanese patients; conditions: for Clinical success %, Wound or burn: MITT-MRSA, daptomycin 4 mg/kg qd n/N 31/38, vancomycin 1 g bid 11/13, at TOC; for Clinical response, wound or burn: daptomycin 4 mg/kg qd, wound or burn n = 38
[2] = tested on: methicillin-resistant Staphylococcus aureus (MRSA); test: EAC-assessed microbiological response at test-of-cure, MITT-MRSA population; type: in vivo, Japanese patients; conditions: daptomycin n/N 0/2, vancomycin 0/1, at TOC
Safety evaluation = type: in vivo, Japanese patients; conditions: for Recipients with CPK levels >200 U/l: human, in vivo; for Maximum CPK level in the recipient with CPK >500 U/l: single patient per group
baseline MRSA isolates = test: microbe, parasite or virus in culture; type: cell-based, Staphylococcus aureus
[3] = Population pharmacokinetics of daptomycin in plasma by baseline renal function; conditions: 4 mg/kg once daily
[4] = 74 baseline MRSA isolates at screening, broth microdilution, CLSI M7-A7

Compound | MIC range (baseline MRSA isolates; [4]) [µg/mL] | MIC90 (baseline MRSA isolates; Staphylococcus aureus, MRSA) [µg/mL] | Clinical success %, Wound or burn [1] [%] | Microbiological success %, Other infection [2] [%] | Recipients with CPK levels >200 U/l (Safety evaluation) [%] | Maximum CPK level in the recipient with CPK >500 U/l (Safety evaluation) | MIC90 (baseline MRSA isolates; [4]) [µg/mL] | also measured
CCCCCCCCCC(=O)N[C@@H](Cc1c[nH]c2ccccc12)C(=O)N[C@H](CC(N)=O)C(=O)N[C@@H](CC(=O)O)C(=O)N[C@@H]1C(=O)NCC(=O)N[C@@H](CCCN)C(=O)N[C@@H](CC(=O)O)C(=O)N[C@H](C)C(=O)N[C@@H](CC(=O)O)C(=O)NCC(=O)N[C@H](CO)C(=O)N[C@@H]([C@H](C)CC(=O)O)C(=O)N[C@@H](CC(=O)c2ccccc2N)C(=O)O[C@@H]1C [Daptomycin] |  |  | 81.6 | 0.0 | 9.1 | 2,545 U/l |  | Clinical response, wound or burn ([1]; baseline MRSA daptomycin MIC 0.25): 87.5%; Clinical response, wound or burn ([1]; baseline MRSA daptomycin MIC 0.5): 82.4%; Clinical response, wound or burn ([1]; baseline MRSA daptomycin MIC 1): 50.0%; Drug-related serious adverse event (kind) (Safety evaluation; one patient, just after initial dosing, resolved 4 days after discontinuation): anaphylactic shock; MIC90 (baseline MRSA isolates; baseline isolates): 0.5 µg/mL (≈ 0.309 µM); MIC range (baseline MRSA isolates; baseline isolates): 0.25 to 1 µg/mL; Mean CL/wt lower than in patients with normal renal function (CLcr >80 ml/min) ([3]; mild renal impairment (CLcr 50–80 ml/min)): approximately 15%; Mean CL/wt lower than in patients with normal renal function (CLcr >80 ml/min) ([3]; moderate renal impairment (CLcr 30 to <50 ml/min)): approximately 15%; AUC relative to patients with normal renal function ([3]; one patient with CLcr <30 ml/min): approximately 1.4 times higher; Mean CL/wt lower than in patients with normal renal function (CLcr >80 ml/min) ([3]; severe renal impairment (CLcr <30 ml/min)): ~38%
CN[C@H](CC(C)C)C(=O)N[C@H]1C(=O)N[C@@H](CC(N)=O)C(=O)N[C@H]2C(=O)N[C@H]3C(=O)N[C@H](C(=O)N[C@H](C(=O)O)c4cc(O)cc(O)c4-c4cc3ccc4O)[C@H](O)c3ccc(c(Cl)c3)Oc3cc2cc(c3O[C@@H]2O[C@H](CO)[C@@H](O)[C@H](O)[C@H]2O[C@H]2C[C@](C)(N)[C@H](O)[C@H](C)O2)Oc2ccc(cc2Cl)[C@H]1O [Vancomycin, vancomycin] | 0.5 to 2 |  | 84.6 | 0.0 | 9.1 | 592 U/l | 1 (≈ 0.69 µM) | 
CC(=O)NC[C@H]1CN(c2ccc(N3CCOCC3)c(F)c2)C(=O)O1 [linezolid] | 1 to 4 | 2 (≈ 5.93 µM) |  |  |  |  |  | 
Cc1onc(-c2ccccc2)c1C(=O)N[C@@H]1C(=O)N2[C@@H]1SC(C)(C)[C@@H]2C(=O)O [oxacillin] |  | > 128 |  |  |  |  |  | 

The next lines start with results.

MIC range (baseline MRSA isolates; [4]) [µg/mL] | MIC90 (baseline MRSA isolates; Staphylococcus aureus, MRSA) [µg/mL] | Compound | Clinical success %, Wound or burn [1] [%] | Microbiological success %, Other infection [2] [%] | Recipients with CPK levels >200 U/l (Safety evaluation) [%] | Maximum CPK level in the recipient with CPK >500 U/l (Safety evaluation) | MIC90 (baseline MRSA isolates; [4]) [µg/mL] | also measured
0.25 to 4 | 2 (≈ 3.62 µM) | NCC[C@H](O)C(=O)N[C@@H]1C[C@H](N)[C@@H](O[C@H]2O[C@H](CN)CC[C@H]2N)[C@H](O)[C@H]1O[C@H]1O[C@H](CO)[C@@H](O)[C@H](N)[C@H]1O [arbecacin] |  |  |  |  |  | 
0.25 to 8 |  | teicoplanin |  |  |  |  | 4 | 
